Patent publication US8802866B2, “Pyridinylimidazolone derivatives for the inhibition of PI3 kinases” (Merck Patent GmbH, priority 2009, dated 2014)

Tests used:
PI3Kalpha = PI3Kalpha (Homo sapiens, UniProt P42336); assay: Biochemical PI3Kalpha assay (neomycin SPA, lipid phosphorylation); settings: human recombinant GST-PI3K
Procedure, shortened: (§1)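 Recombinant PI3K incubated with lipid substrate and radioactive ATP for 120 min at room temperature with gentle stirring, then stopped with neomycin-coated PVT-SPA beads, ATP 60 mM and EDTA 6.2 mM in PBS. After 60 min bead binding and centrifugation, radioactive Ptdlns(3)P counted by scintillation.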

PI3Kbeta = PI3Kbeta (Homo sapiens, UniProt P42338); assay: Biochemical PI3Kbeta assay (neomycin SPA, lipid phosphorylation); settings: human recombinant GST-PI3K
Chain of PI3Kbeta (P42338 whole entry): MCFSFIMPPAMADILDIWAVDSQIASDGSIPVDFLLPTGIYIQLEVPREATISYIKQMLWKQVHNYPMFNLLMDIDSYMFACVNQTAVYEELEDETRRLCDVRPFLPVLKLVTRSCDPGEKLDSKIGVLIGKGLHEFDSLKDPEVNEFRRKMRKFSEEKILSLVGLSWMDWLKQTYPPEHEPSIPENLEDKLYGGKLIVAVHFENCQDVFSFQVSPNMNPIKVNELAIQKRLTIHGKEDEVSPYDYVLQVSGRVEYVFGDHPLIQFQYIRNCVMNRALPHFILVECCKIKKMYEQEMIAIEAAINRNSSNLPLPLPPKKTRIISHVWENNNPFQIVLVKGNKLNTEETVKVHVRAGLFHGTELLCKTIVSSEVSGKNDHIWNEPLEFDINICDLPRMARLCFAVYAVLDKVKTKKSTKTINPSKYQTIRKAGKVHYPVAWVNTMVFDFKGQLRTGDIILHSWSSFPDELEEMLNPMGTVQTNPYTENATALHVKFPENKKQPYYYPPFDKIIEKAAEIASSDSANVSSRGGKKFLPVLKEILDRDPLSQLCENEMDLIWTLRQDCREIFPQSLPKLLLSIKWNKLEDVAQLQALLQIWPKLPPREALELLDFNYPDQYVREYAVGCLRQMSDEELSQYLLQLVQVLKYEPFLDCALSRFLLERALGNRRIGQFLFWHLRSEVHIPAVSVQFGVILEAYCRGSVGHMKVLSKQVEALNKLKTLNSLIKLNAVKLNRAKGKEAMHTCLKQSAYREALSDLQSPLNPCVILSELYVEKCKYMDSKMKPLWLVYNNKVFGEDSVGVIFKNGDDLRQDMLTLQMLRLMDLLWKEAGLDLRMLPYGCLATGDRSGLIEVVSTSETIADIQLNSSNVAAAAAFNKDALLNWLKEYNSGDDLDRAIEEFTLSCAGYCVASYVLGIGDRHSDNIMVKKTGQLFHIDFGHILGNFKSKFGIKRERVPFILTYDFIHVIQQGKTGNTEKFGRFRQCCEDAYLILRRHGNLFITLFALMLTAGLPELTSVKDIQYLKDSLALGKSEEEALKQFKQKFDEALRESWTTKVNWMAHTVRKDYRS
Chain of PI3Kbeta (P27986 whole entry partner): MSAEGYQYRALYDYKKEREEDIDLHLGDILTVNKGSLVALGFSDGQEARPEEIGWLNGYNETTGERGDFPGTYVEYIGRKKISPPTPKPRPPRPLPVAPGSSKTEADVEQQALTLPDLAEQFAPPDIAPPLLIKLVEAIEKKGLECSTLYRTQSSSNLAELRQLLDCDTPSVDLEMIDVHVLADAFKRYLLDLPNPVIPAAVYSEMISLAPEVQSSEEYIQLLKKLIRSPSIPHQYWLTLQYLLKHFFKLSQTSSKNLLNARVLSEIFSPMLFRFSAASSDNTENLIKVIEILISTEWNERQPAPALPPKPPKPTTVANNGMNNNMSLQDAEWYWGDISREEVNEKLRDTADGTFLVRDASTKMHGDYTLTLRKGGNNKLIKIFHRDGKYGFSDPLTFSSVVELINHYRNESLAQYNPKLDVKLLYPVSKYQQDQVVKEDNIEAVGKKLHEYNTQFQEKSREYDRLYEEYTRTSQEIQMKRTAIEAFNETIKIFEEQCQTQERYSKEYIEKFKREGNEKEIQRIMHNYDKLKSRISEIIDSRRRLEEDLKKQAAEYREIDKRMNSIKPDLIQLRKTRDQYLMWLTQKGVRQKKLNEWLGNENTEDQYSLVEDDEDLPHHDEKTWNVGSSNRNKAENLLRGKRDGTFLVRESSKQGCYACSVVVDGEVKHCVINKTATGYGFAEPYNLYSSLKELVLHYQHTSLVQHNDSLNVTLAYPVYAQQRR
Procedure, shortened: as §1

[1] = biological target: recombinant PI3Kalpha (shortened form of the catalytic subunit) (Homo sapiens, UniProt P42336); assay: BIACORE PI3K binding assay (SPR); settings: 25° C.
Chain of recombinant PI3Kalpha (shortened form of the catalytic subunit) (P42336 151-1068 limits assumed): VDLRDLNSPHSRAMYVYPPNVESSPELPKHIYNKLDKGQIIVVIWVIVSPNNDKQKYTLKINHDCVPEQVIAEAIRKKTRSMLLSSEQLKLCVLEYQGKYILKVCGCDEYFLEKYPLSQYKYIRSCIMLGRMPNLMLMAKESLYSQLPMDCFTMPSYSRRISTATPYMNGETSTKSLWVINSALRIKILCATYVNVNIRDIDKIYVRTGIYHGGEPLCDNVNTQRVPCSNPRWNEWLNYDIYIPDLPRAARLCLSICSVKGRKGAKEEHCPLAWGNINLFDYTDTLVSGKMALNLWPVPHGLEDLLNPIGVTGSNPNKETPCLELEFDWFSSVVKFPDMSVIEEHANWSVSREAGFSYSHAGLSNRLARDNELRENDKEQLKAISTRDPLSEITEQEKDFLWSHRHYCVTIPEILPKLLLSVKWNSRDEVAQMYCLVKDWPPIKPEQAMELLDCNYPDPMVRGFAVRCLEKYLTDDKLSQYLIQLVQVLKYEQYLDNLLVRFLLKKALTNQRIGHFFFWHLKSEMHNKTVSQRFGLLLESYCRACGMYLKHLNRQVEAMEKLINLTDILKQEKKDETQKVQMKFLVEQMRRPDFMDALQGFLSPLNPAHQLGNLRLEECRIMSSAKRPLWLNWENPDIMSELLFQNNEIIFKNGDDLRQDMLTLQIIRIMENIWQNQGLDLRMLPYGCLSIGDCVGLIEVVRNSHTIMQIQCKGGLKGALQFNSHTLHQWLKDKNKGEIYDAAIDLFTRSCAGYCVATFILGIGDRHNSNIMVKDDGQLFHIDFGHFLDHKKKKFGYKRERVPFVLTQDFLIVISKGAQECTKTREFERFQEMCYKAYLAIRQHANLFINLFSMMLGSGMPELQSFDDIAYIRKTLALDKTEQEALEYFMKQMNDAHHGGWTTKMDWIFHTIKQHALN
Procedure, shortened: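 Contact time was 180 s and dissociation 240 s, in HEPES pH 7.40 buffer with 2% DMSO. Solvent-corrected, double-referenced data were fitted to a 1:1 model with mass transport.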

[2] = tested on: PI3K-dependent phosphorylation of PKB at Serin 473 in PC3 cells; assay: Cellular PI3K assay (P-S473-PKB Luminex assay in PC3 cells); type: cell-based; settings: Homo sapiens, PC-3, 0.5 h; PC3 cells, 30 min, serum-free, P-S473-PKB; read-out: IC50 (cell)
Procedure, shortened: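 PC3 cells were exposed for 30 min under serum-free conditions to 7 concentrations of compound, then lysed. Lysates were captured overnight at 4°C on anti-total-PKB Luminex beads and detected with P-S473-PKB antibody plus PE-labelled secondary.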

DNA-PK protein complex = DNA-PK protein complex (Homo sapiens, UniProt P78527); assay: Biochemical DNA-PK assay (FlashPlate)
Procedure, shortened: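 Streptavidin-coated FlashPlate radiometric kinase assay, stopped with 200 mM EDTA, then wells washed with 0.9% NaCl and bound radioactivity counted. Blank (non-specific reaction) defined with a proprietary kinase inhibitor at 10 μM.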

mTOR = biological target: T1, mTOR (Homo sapiens, UniProt P42345); assay: Biochemical mTOR assay (Millipore mTOR assay kit)
T1 construct: purchased Millipore 14-770
T1 sequence (P42345 1362-2549 limits assumed): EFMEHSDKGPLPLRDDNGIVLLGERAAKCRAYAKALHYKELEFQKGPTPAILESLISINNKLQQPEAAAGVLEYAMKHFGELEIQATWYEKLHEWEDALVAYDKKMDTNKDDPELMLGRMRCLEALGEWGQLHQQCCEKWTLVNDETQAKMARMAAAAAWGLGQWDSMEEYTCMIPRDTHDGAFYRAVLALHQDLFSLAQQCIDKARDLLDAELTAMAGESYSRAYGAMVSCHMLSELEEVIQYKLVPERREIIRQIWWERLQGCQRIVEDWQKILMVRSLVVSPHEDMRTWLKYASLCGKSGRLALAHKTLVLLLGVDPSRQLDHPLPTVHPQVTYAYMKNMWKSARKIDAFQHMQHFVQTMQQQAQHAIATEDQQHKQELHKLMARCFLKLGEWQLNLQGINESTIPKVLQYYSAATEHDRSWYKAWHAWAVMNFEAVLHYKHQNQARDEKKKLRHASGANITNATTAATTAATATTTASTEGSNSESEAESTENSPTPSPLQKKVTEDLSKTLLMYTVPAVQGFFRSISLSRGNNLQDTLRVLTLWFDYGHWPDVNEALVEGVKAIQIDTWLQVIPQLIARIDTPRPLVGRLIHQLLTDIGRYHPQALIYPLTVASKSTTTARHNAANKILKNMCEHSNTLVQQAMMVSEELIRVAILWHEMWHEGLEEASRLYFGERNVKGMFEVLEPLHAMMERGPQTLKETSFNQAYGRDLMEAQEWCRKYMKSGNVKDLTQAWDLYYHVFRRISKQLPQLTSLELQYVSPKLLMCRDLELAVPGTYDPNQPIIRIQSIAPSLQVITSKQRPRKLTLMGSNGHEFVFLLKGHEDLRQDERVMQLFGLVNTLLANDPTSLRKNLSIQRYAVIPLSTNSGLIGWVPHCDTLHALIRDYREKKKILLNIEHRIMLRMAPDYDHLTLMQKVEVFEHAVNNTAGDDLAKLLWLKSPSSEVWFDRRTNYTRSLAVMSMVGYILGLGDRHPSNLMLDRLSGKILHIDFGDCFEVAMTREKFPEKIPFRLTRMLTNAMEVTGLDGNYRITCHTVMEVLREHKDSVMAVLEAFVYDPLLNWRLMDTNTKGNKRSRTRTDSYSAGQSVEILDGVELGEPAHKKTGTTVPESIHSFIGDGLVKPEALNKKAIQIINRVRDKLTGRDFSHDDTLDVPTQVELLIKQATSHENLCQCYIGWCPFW
Protocol: The biochemical mTOR assay was carried out by the method described in the Millipore mTOR assay kit (catalogue number 14-770).

Chain of PI3Kalpha (P42336 whole entry): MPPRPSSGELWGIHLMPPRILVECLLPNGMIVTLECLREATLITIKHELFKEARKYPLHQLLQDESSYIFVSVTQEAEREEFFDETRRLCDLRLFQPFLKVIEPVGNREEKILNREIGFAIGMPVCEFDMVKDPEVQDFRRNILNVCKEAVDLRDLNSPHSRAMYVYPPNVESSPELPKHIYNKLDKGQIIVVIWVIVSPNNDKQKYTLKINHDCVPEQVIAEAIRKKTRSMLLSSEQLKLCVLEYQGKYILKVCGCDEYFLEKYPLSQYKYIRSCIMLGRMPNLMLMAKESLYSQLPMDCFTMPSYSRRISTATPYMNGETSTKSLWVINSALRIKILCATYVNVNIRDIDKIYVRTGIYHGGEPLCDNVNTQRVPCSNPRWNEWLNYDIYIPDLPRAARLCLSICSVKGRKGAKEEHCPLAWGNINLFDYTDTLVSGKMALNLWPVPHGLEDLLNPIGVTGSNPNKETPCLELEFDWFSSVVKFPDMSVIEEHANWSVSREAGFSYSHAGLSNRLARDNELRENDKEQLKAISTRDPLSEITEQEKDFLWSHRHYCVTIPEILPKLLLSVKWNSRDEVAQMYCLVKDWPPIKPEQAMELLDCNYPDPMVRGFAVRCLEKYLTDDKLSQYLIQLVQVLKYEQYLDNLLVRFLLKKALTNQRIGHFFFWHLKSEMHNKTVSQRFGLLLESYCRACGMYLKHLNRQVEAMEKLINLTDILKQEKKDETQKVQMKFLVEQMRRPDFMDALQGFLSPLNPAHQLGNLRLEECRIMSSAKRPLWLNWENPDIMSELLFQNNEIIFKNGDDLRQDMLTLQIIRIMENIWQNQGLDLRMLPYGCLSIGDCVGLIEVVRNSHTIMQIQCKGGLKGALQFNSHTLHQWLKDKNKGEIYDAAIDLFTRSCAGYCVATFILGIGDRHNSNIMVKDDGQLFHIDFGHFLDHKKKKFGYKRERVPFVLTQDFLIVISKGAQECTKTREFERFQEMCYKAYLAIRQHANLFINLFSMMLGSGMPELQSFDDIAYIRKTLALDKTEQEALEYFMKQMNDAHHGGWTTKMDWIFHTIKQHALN
Chain of PI3Kalpha (P27986 whole entry partner): as the sequence (P27986 whole entry partner) above

IC50 (PI3Kalpha) [nM] | IC50 (PI3Kbeta) [nM] | Kd [1] [nM] | IC50 [2] [nM] | IC50 (DNA-PK protein complex) [nM] | IC50 (mTOR) [nM] | melting point | Structure (SMILES)
0.1 to 100 | 100 to 10000 | 0.1 to 100 | 100 to 10000 | 0.1 to 100 | 0.1 to 100 | 252 °C | Cn1cc(-c2cc(-c3cnc4[nH]ccc4c3)ccn2)n(-c2ccc(CC#N)cc2)c1=O [Example A32, (4-{3-Methyl-2-oxo-5-[4-(1H-pyrrolo[2,3-b]pyridin-5-yl)pyridin-2-yl]-2,3-dihydroimidazol-1-yl}phenyl)acetonitrile]
0.1 to 100 | 100 to 10000 |  | 100 to 10000 | 0.1 to 100 | 100 to 10000 | 299 °C | Cn1cc(-c2cc(-c3cnc4[nH]ccc4c3)ccn2)n(-c2ccc(C(C)(C)C(N)=O)cc2)c1=O [Example A34, 2-(4-{3-Methyl-2-oxo-5-[4-(1H-pyrrolo[2,3-b]pyridin-5-yl)pyridin-2-yl]-2,3-dihydroimidazol-1-yl}phenyl)isobutyramide]
100 to 10000 | 100 to 10000 |  | 100 to 10000 | 0.1 to 100 | 100 to 10000 | 91 °C | Cn1cc(-c2cc(-c3cnc4[nH]ccc4c3)ccn2)n(-c2ccc(C(C)(C)CN)cc2)c1=O [Example A35, 3-[4-(2-Amino-1,1-dimethylethyl)phenyl]-1-methyl-4-[4-(1H-pyrrolo[2,3-b]-pyridin-5-yl)pyridin-2-yl]-1,3-dihydroimidazol-2-one]
100 to 10000 | > 10000 | 100 to 10000 | > 10000 | 0.1 to 100 | 100 to 10000 | 158 °C | CCOC(=O)C(C)(C)c1ccc(-n2c(-c3cc(-c4cnc5ccccc5c4)ccn3)cn(C)c2=O)cc1 [Example A36, Ethyl 2-methyl-2-{4-[3-methyl-2-oxo-5-(4-quinolin-3-ylpyridin-2-yl)-2,3-dihydro-imidazol-1-yl]phenyl}propionate]
0.1 to 100 | 100 to 10000 | 0.1 to 100 | 100 to 10000 | 0.1 to 100 | 100 to 10000 | 294 °C | Cn1cc(-c2cc(-c3cnc4[nH]ncc4c3)ccn2)n(-c2ccc(C(C)(C)C#N)cc2)c1=O [Example A41, 2-Methyl-2-(4-{3-methyl-2-oxo-5-[4-(1H-pyrazolo[3,4-b]pyridin-5-yl)pyridin-2-yl]-2,3-dihydroimidazol-1-yl}phenyl)propionitrile]
0.1 to 100 | 100 to 10000 | 0.1 to 100 | 100 to 10000 | 0.1 to 100 | 100 to 10000 | 247 °C | Cn1cc(-c2cc(-c3cnc4c(c3)CCN4)ccn2)n(-c2ccc(C(C)(C)C#N)cc2)c1=O [Example A43, 2-(4-{5-[4-(2,3-Dihydro-1H-pyrrolo[2,3-b]pyridin-5-yl)pyridin-2-yl]-3-methyl-2-oxo-2,3-dihydroimidazol-1-yl}phenyl)-2-methylpropionitrile]
100 to 10000 | 100 to 10000 | 0.1 to 100 | 100 to 10000 | 0.1 to 100 | 100 to 10000 | 263 °C | Cn1cc(-c2cc(-c3cnc4c(c3)CC(=O)N4)ccn2)n(-c2ccc(C(C)(C)C#N)cc2)c1=O [Example A44, 2-Methyl-2-(4-{3-methyl-2-oxo-5-[4-(2-oxo-2,3-dihydro-1H-pyrrolo[2,3-b]pyridin-5-yl)pyridin-2-yl]-2,3-dihydroimidazol-1-yl}phenyl)propionitrile]
100 to 10000 | 100 to 10000 |  | 100 to 10000 | 0.1 to 100 | 100 to 10000 | 264 °C | Cn1cc(-c2cc(-c3cnc4[nH]ccc4c3)ccn2)n(-c2ccccc2)c1=O [Example A47, 1-Methyl-3-phenyl-4-[4-(1H-pyrrolo[2,3-b]pyridin-5-yl)pyridin-2-yl]-1,3-dihydroimidazol-2-one]

More lines, now with the values behind:

Structure (SMILES) | IC50 (PI3Kalpha) [nM] | IC50 (PI3Kbeta) [nM] | Kd [1] [nM] | IC50 [2] [nM] | IC50 (DNA-PK protein complex) [nM] | IC50 (mTOR) [nM] | melting point
Cn1cc(-c2cc(-c3cnc4ccccc4c3)ccn2)n(-c2ccc(C(C)(C)C#N)cc2)c1=O [Example A1, 2-Methyl-2-{4-[3-methyl-2-oxo-5-(4-quinolin-3-ylpyridin-2-yl)-2,3-dihydroimidazol-1-yl]phenyl}propionitrile] | 100 to 10000 | 100 to 10000 | 100 to 10000 | 100 to 10000 | 0.1 to 100 | 0.1 to 100 | 228 °C
COc1ccc(-c2ccnc(-c3cn(C)c(=O)n3-c3ccc(C(C)(C)C#N)cc3)c2)cn1 [Example A9, 2-{4-[5-(6-Methoxy-[3,4′]bipyridinyl-2′-yl)-3-methyl-2-oxo-2,3-dihydroimidazol-1-yl]phenyl}-2-methylpropionitrile] | 100 to 10000 | 100 to 10000 | 100 to 10000 | 100 to 10000 | 0.1 to 100 | 100 to 10000 | 187 °C
Cn1cc(-c2cc(-c3cnc4[nH]ccc4c3)ccn2)n(-c2ccc(C(C)(C)C#N)cc2)c1=O [Example A12, 2-Methyl-2-(4-{3-methyl-2-oxo-5-[4-(1H-pyrrolo[2,3-b]pyridin-5-yl)pyridin-2-yl]-2,3-dihydroimidazol-1-yl}phenyl)propionitrile] | 0.1 to 100 | 100 to 10000 | 0.1 to 100 | 0.1 to 100 | 0.1 to 100 | 100 to 10000 | 248 °C
COc1ccc(-c2ccnc(-c3cn(C)c(=O)n3-c3ccc(C(C)(C)C#N)cc3)c2)cc1 [Example A13, 2-(4-{5-[4-(4-Methoxyphenyl)pyridin-2-yl]-3-methyl-2-oxo-2,3-dihydroimidazol-1-yl}phenyl)-2-methylpropionitrile] | > 10000 | > 10000 | 100 to 10000 | > 10000 | 0.1 to 100 | 100 to 10000 | 219 °C
Cn1cc(-c2cc(-c3cnc4ccccc4c3)ccn2)n(-c2ccc(C(C)(C)C(N)=O)cc2)c1=O [Example A21, 2-{-4-[3-Methyl-2-oxo-5-(4-quinolin-3-ylpyridin-2-yl)-2,3-dihydroimidazol-1-yl]-phenyl}isobutyramide] | 100 to 10000 | 100 to 10000 | 0.1 to 100 | > 10000 | 0.1 to 100 | 100 to 10000 | 259 °C
Cn1cc(-c2cc(-c3ccsc3)ccn2)n(-c2ccc(C(C)(C)C#N)cc2)c1=O [Example A26, 2-Methyl-2-{4-[3-methyl-2-oxo-5-(4-thiophen-3-ylpyridin-2-yl)-2,3-dihydro-imidazol-1-yl]phenyl}propionitrile] | 100 to 10000 | > 10000 | 100 to 10000 | > 10000 | 0.1 to 100 | 100 to 10000 | 209 °C
N#CCc1ccc(-n2c(-c3cc(-c4cnc5[nH]ccc5c4)ccn3)c[nH]c2=O)cc1 [Example A31, (4-{2-oxo-5-[4-(1H-pyrrolo[2,3-b]pyridin-5-yl)pyridin-2-yl]-2,3-dihydroimidazol-1-yl}phenyl)acetonitrile] | 100 to 10000 | 100 to 10000 | 0.1 to 100 | 100 to 10000 | 0.1 to 100 | 100 to 10000 | > 410 °C (dec.)
